Measurements published in US11578087B2, “Oxaborole esters and uses thereof” (priority 2016, dated 2023).
Read-outs that look alike come from different tables or passages of the source.

What was measured:
[1] = system: STIB719/ILRAD560 T. vivax (drug sensitive) strain; experiment: Ex vivo Alamar Blue 48 h drug sensitivity assay for T. vivax; assay type: cell-based; conditions: Trypanosoma vivax, ex vivo bloodstream form from mouse, 45 hrs + 3 hrs Resazurin, 37° C., read-out: IC50: I Hypoxanthine Incorporation T. vivax 2 d
[2] = system: IL3000 T. congolense (drug sensitive) strain; experiment: In vitro Alamar Blue 72 h drug sensitivity assay for T. congolense; assay type: cell-based, Trypanosoma congolense; conditions: bloodstream form, 69 h + 3 h Resazurin, 34° C., read-out: IC50: I Org. Growth T. congolense 3 d
Method in brief: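 IC50 values derive from 11-point curves averaged over at least three independent runs, with fluorescence read at 536 nm excitation and 588 nm emission. Resazurin was added for a final 3 h after 69 h compound exposure of bloodstream forms (HMI medium, 20% bovine serum, 34° C, 5% CO2).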

[3] = system: T. cruzi amastigote (Td Tomato-modified) in Vero cells; experiment: In vitro IC50 measurement of T. cruzi amastigote killing using Td Tomato-modified T. cruzi; assay type: cell-based; conditions: Trypanosoma cruzi, 72 h, fluorescence, read-out: IC50: I Org. amastigote Growth T. cruzi 3 d
Method in brief: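 IC50/IC90 came from nonlinear regression of Day 3 minus Day 0 fluorescence (544/612 nm), correcting for input parasites. Final compound concentrations spanned 5 nM–5 uM on Td Tomato T. cruzi-infected Vero cells, 72 h at 37 °C.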

Row | SMILES | IC50 [1] | IC50 ([2]; Trypanosoma congolense, 72 h) | IC50 [2] | IC50 [3]
1 | CC(C)C[C@H](NC(=O)c1ccc2c(c1)B(O)OC2)C(=O)OCc1ccccc1 [Example 6-006, Benzyl (1-hydroxy-1,3-dihydrobenzo[c][1,2]oxaborole-6-carbonyl)-L-leucinate] | 0.51 to 49.9 nM | 0.51 to 9.99 nM |  | 
2 | COC(=O)[C@H](C)NC(=O)c1ccc2c(c1)B(O)OC2 [Example 6-016, Methyl (1-hydroxy-1,3-dihydrobenzo[c][1,2]oxaborole-6-carbonyl)-L-alaninate] | > 2000 nM | 10 to 5000 nM |  | 
3 | COC(=O)[C@@H](Cc1ccccc1)NC(=O)c1ccc2c(c1)B(O)OC2 [Example 6-018, Methyl (1-hydroxy-1,3-dihydrobenzo[c][1,2]oxaborole-6-carbonyl)-D-phenylalaninate] | 50 to 2000 nM | 10 to 5000 nM |  | 
4 | C[C@H](NC(=O)c1ccc2c(c1)B(O)OC2)C(=O)O[C@H](C)c1ccccc1 [Example 6-019, (R)-1-Phenylethyl (1-hydroxy-1,3-dihydrobenzo[c][1,2]oxaborole-6-carbonyl)-L-alaninate] | 50 to 2000 nM | 0.51 to 9.99 nM |  | 
5 | C[C@@H](OC(=O)[C@H](Cc1ccccc1)NC(=O)c1ccc2c(c1)B(O)OC2)c1ccccc1 [Example 6-021, (R)-1-phenylethyl (1-hydroxy-1,3-dihydrobenzo[c][1,2]oxaborole-6-carbonyl)-L-phenylalaninate] | 0.51 to 49.9 nM | 0.51 to 9.99 nM |  | 
6 | C[C@H](NC(=O)c1ccc2c(c1)B(O)OC2)C(=O)O[C@@H](C)c1ccccc1 [Example 6-022, (S)-1-phenylethyl (1-hydroxy-1,3-dihydrobenzo[c][1,2]oxaborole-6-carbonyl)-L-alaninate] | 50 to 2000 nM | 10 to 5000 nM |  | 
7 | C[C@H](OC(=O)[C@H](Cc1ccccc1)NC(=O)c1ccc2c(c1)B(O)OC2)c1ccccc1 [Example 6-024, (S)-1-phenylethyl (1-hydroxy-1,3-dihydrobenzo[c][1,2]oxaborole-6-carbonyl)-L-phenylalaninate] | 50 to 2000 nM | 0.51 to 9.99 nM |  | 
8 | COC(=O)[C@@H](CCc1ccccc1)NC(=O)c1ccc2c(c1)B(O)OC2 [Example 6-025, Methyl (R)-2-(1-hydroxy-1,3-dihydrobenzo[c][1,2]oxaborole-6-carboxamido)-4-phenylbutanoate] | > 2000 nM | 10 to 5000 nM |  | 
9 | COC(=O)[C@H](Cc1ccccc1)NC(=O)c1ccc2c(c1)B(O)OC2 [Example 6-026, Methyl (1-hydroxy-1,3-dihydrobenzo[c][1,2]oxaborole-6-carbonyl)-L-phenylalaninate] | 50 to 2000 nM |  | 0.51 to 9.99 nM | 
10 | COC(=O)[C@H](CCc1ccccc1)NC(=O)c1ccc2c(c1)B(O)OC2 [Example 6-027, Methyl (S)-2-(1-hydroxy-1,3-dihydrobenzo[c][1,2]oxaborole-6-carboxamido)-4-phenylbutanoate] | 50 to 2000 nM | 10 to 5000 nM |  | 
11 | CC(C)[C@H](NC(=O)c1ccc2c(c1)B(O)OC2)C(=O)OCc1ccc(F)cc1F [Example 6-031, 2,4-Difluorobenzyl (1-hydroxy-1,3-dihydrobenzo[c][1,2]oxaborole-6-carbonyl)-L-valinate] | 0.51 to 49.9 nM | 0.51 to 9.99 nM |  | 
12 | CC(C)[C@H](NC(=O)c1ccc2c(c1)B(O)OC2(C)C)C(=O)OCc1ccccc1 [Example 6-032, Benzyl (1-hydroxy-3,3-dimethyl-1,3-dihydrobenzo[c][1,2]oxaborole-6-carbonyl)-L-valinate] | > 2000 nM | 10 to 5000 nM |  | 
13 | Cc1c(C(=O)N[C@H](C(=O)OCc2ccc(F)cc2F)C(C)C)ccc2c1B(O)OC2 [Example 6-039, 2,4-Difluorobenzyl (1-hydroxy-7-methyl-1,3-dihydrobenzo[c][1,2]oxaborole-6-carbonyl)-L-valinate] | < 0.5 nM | 0.51 to 9.99 nM |  | 
14 | Cc1c(C(=O)N[C@H](C(=O)OCc2cccc(F)c2)C(C)C)ccc2c1B(O)OC2 [Example 6-042, 3-Fluorobenzyl (1-hydroxy-7-methyl-1,3-dihydrobenzo[c][1,2]oxaborole-6-carbonyl)-L-valinate] | < 0.5 nM | 0.51 to 9.99 nM |  | 
15 | Cc1c(C(=O)N[C@H](C(=O)OCc2ccc(F)cc2)c2ccccc2)ccc2c1B(O)OC2 [Example 6-045, 4-Fluorobenzyl (S)-2-(1-hydroxy-7-methyl-1,3-dihydrobenzo[c][1,2]oxaborole-6-carboxamido)-2-phenylacetate] | < 0.5 nM | < 0.5 nM |  | 
16 | Cc1c(C(=O)N[C@H](C(=O)OCc2cc(F)cc(F)c2)C(C)C)ccc2c1B(O)OC2 [Example 6-048, 3,5-Difluorobenzyl (1-hydroxy-7-methyl-1,3-dihydrobenzo[c][1,2]oxaborole-6-carbonyl)-L-valinate] | < 0.5 nM | < 0.5 nM |  | 
17 | Cc1c(C(=O)N[C@H](C(=O)OCc2ccc(F)c(Cl)c2)C(C)C)ccc2c1B(O)OC2 [Example 6-051, 3-Chloro-4-fluorobenzyl (1-hydroxy-7-methyl-1,3-dihydrobenzo[c][1,2]oxaborole-6-carbonyl)-L-valinate] | < 0.5 nM | < 0.5 nM |  | 
18 | CCc1c(C(=O)N[C@H](C(=O)OCc2ccc(F)cc2)C(C)C)ccc2c1B(O)OC2 [Example 6-052, 4-Fluorobenzyl (7-ethyl-1-hydroxy-1,3-dihydrobenzo[c][1,2]oxaborole-6-carbonyl)-L-valinate] | < 0.5 nM | < 0.5 nM |  | 
19 | CC(C)[C@H](NC(=O)c1ccc2c(c1C1CC1)B(O)OC2)C(=O)OCc1ccc(F)cc1 [Example 6-057, 4-Fluorobenzyl (7-cyclopropyl-1-hydroxy-1,3-dihydrobenzo[c][1,2]oxaborole-6-carbonyl)-L-valinate] | < 0.5 nM | 0.51 to 9.99 nM |  | 
20 | CC(C)c1c(C(=O)N[C@H](C(=O)OCc2ccc(F)cc2)C(C)C)ccc2c1B(O)OC2 [Example 6-062, 4-Fluorobenzyl (1-hydroxy-7-isopropyl-1,3-dihydrobenzo[c][1,2]oxaborole-6-carbonyl)-L-valinate] | < 0.5 nM | 0.51 to 9.99 nM |  | 
21 | CCCc1c(C(=O)N[C@H](C(=O)OCc2ccc(F)cc2)C(C)C)ccc2c1B(O)OC2 [Example 6-064, 4-fluorobenzyl (1-hydroxy-7-propyl-1,3-dihydrobenzo[c][1,2]oxaborole-6-carbonyl)-L-valinate] | 0.51 to 49.9 nM | 0.51 to 9.99 nM |  | 
22 | CC(C)[C@H](NC(=O)c1ccc2c(c1C(F)(F)F)B(O)OC2)C(=O)OCc1ccc(F)cc1 [Example 6-070, 4-Fluorobenzyl (1-hydroxy-7-(trifluoromethyl)-1,3-dihydrobenzo[c][1,2]oxaborole-6-carbonyl)-L-valinate] | 50 to 2000 nM | 10 to 5000 nM |  | 
23 | COC(=O)[C@@H](NC(=O)c1ccc2c(c1C)B(O)OC2)[C@@H](C)OCc1ccccc1 [Example 6-078, Methyl O-benzyl-N-(1-hydroxy-7-methyl-1,3-dihydrobenzo[c][1,2]oxaborole-6-carbonyl)-L-threoninate] | 0.51 to 49.9 nM | 10 to 5000 nM |  | 
24 | CC(C)c1c(C(=O)N[C@H](C(=O)OCc2ccc(S(C)(=O)=O)cc2)C(C)C)ccc2c1B(O)OC2 [Example 6-084, 4-(Methylsulfonyl)benzyl (1-hydroxy-7-isopropyl-1,3-dihydrobenzo[c][1,2]oxaborole-6-carbonyl)-L-valinate] | 0.51 to 49.9 nM | 10 to 5000 nM |  | 
25 | Cc1c(C(=O)N[C@H](C(=O)OCc2ccc(F)cc2)[C@H](C)O)ccc2c1B(O)OC2 [Example 6-088, 4-Fluorobenzyl (1-hydroxy-7-methyl-1,3-dihydrobenzo[c][1,2]oxaborole-6-carbonyl)-L-allothreoninate] | 0.51 to 49.9 nM | 0.51 to 9.99 nM |  | 
26 | Cc1c(C(=O)N[C@H](C(=O)OCc2ccc3c(c2)C(=O)CS3(=O)=O)C(C)C)ccc2c1B(O)OC2 [Example 6-104, (1,1-Dioxido-3-oxo-2,3-dihydrobenzo[b]thiophen-5-yl)methyl (1-hydroxy-7-methyl-1,3-dihydrobenzo[c][1,2]oxaborole-6-carbonyl)-L-valinate] | 0.51 to 49.9 nM | 10 to 5000 nM |  | 
27 | Cc1c(C(=O)N[C@H](C(=O)OCc2cnc(C(F)(F)F)nc2)C(C)C)ccc2c1B(O)OC2 [Example 6-159, (2-(Trifluoromethyl)pyrimidin-5-yl)methyl (1-hydroxy-7-methyl-1,3-dihydrobenzo[c][1,2]oxaborole-6-carbonyl)-L-valinate] | < 0.5 nM | < 0.5 nM |  | 
28 | Cc1c(C(=O)N[C@H](C(=O)OCc2ccc(F)c(OCCN3CCCC3)c2)C(C)C)ccc2c1B(O)OC2 [Example 6-245, 4-Fluoro-3-(2-(pyrrolidin-1-yl)ethoxy)benzyl (1-hydroxy-7-methyl-1,3-dihydrobenzo[c][1,2]oxaborole-6-carbonyl)-L-valinate] |  | 0.51 to 9.99 nM |  | 21 to 999 nM
29 | Cc1c(C(=O)N[C@H](C(=O)OCc2ccc(OCCN3CCOCC3)cc2)C(C)C)ccc2c1B(O)OC2 [Example 6-247, 4-(2-Morpholinoethoxy)benzyl(1-hydroxy-7-methyl-1,3-dihydrobenzo[c][1,2]oxaborole-6-carbonyl)-L-valinate] |  | 0.51 to 9.99 nM |  | ≤ 20 nM
30 | Cc1c(C(=O)N[C@H](C(=O)OCc2ccc(OCCCN3CCCC3)cc2)C(C)C)ccc2c1B(O)OC2 [Example 6-249, 4-(3-(Pyrrolidin-1-yl)propoxy)benzyl(1-hydroxy-7-methyl-1,3-dihydrobenzo[c][1,2]oxaborole-6-carbonyl)-L-valinate] |  | 0.51 to 9.99 nM |  | 21 to 999 nM
